A short description of data set [1]: JC breast adenocarcinoma in mice. It is filed as in vivo, Balb/c mice. The conditions noted are these: BALB/c, mouse, in vivo, intravenous, 8 mg/kg; mice bearing JC. As for the experimental part: (§1) JC is an epithelial-like cell line established in 1983 from a spontaneous primary adenocarcinoma along the milk line (Capone et al., Cancer Immuno. Immunother. 1987, 25, 93-9). It produces tumors with papillary adenocarcinoma morphology in BALB/c mice. […] At the lowest dose of 0.16 mg/kg, (+)-YW-391 (LCK: 1.5) killed 10-times more tumor cells than Dox at 8 mg/kg (LCK: 0.78). (+)-YW-391 has the potential to be a powerful new treatment for human breast cancer.

The next data set has as its system JC breast adenocarcinoma. The data set can be described thus: JC breast adenocarcinoma in mice. It is filed as in vivo, Balb/c mice. As for the experimental part:
as §1

Data set [2] deals with MDA-MB 435 human breast cancer. Particulars: cited from earlier work.
For data set [3], the system named is SKOV-3 human ovarian cancer. Description: SKOV-3 human ovarian cancer xenograft. It is filed as in vivo, CD1 nude mice. On the procedure: Ovarian cancer is one of the most difficult to treat human cancers, and very few drugs are effective. YW-391 had significant activity in SKOV-3 human ovarian cancer xenograft (FIG. 8 and Table 9). […] [table] treated animals. YW-391 and doxorubicin were administered iv., and paclitaxel was administered ip. Equivalents
In general terms: A xenograft is tissue or cells of one species grown in another, often human tumour cells in immunodeficient mice.

A further data set has as its system L1210 leukemia. Description: L1210 leukemia tumor model in mice.
For a further data set, the system named is colon 38 adenocarcinoma. Description: Colon 38 adenocarcinoma in mice. Type of data set: in vivo, BDF1 mice.
Another data set has as its system Lewis lung carcinoma. The data set can be described thus: Lewis lung carcinoma in mice.
Another data set deals with various tumors. The conditions noted are these: cited from earlier work.
For data set [4] the following is noted: one patient with liver cancer, 40 microg/m^2, one cycle (days 1-5); cited from earlier work.
Another data set relates to various cancer cells. Particulars: various cancer cells in vitro, 1 h exposure (Ghielmini et al. 1997); cited from earlier work.
For another data set, the system named is L1210 leukemia cells. The data set can be described thus: Anticancer activity in vitro, 3H-thymidine incorporation. Type of data set: cell-based, murine. Particulars: Mus musculus, 48-h proliferation assay, 3H-thymidine uptake, mean of two experiments.
For another data set, the target named is HSA (Homo sapiens, UniProt P02768). The conditions noted are these: exogenously added HSA; cited from earlier work.
A further data set has as its target T1, endogenous albumin (Homo sapiens, UniProt P02768).
T1 construct: selectivity of Dox-MH for endogenous albumin, Dox-MH was incubated with human blood plasma; from tissue; host or cells: human blood plasma
Particulars: human blood plasma; cited from earlier work.

Data set [5] relates to mouse renal RENCA, human breast cancers MDA-MB 435 and MCF-7. The conditions noted are these: three animal tumor models; cited from earlier work.
Setting [6] is: 0.2 mg/kg i.v. on days 1, 5, 12.
[7] abbreviates: 3.0 mg/kg i.v. on days 1, 5, 12.

Like-named read-outs stand apart in the source and are kept apart here.

Sequence of HSA (P02768 25-609): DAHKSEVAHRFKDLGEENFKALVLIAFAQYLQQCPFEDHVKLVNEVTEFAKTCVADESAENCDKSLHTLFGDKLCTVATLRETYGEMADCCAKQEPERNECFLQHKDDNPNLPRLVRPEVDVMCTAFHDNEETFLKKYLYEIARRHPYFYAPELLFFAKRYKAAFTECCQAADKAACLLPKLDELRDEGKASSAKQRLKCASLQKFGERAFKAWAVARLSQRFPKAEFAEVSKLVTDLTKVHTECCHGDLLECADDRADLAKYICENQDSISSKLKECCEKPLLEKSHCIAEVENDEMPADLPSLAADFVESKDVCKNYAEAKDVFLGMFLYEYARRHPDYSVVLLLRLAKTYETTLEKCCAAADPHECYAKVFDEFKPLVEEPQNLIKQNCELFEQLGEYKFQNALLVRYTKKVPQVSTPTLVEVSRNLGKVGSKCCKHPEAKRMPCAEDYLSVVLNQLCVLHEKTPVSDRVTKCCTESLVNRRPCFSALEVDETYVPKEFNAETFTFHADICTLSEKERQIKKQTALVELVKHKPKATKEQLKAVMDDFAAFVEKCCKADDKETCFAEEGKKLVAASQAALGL
T1 sequence (P02768 25-609): as above
Description for L1210 leukemia cells: The antitumor activity of the compounds was evaluated in vitro against L1210 leukemia and human SKOV-3 ovarian cancer cells (Table 4). L1210 leukemia cells and SKOV-3 (2.5×10^4 cells/well) in RPMI-1640 medium supplemented with 10% FCS medium were seeded in a 96-well plate. Drugs (10 uL) at increasing concentrations were added to each well, and the total volume was adjusted to 0.1 mL/well using the same medium. For L1210 leukemia cells, the plate was incubated for 24 h at 37° C. followed by addition of 10 uL of ^3H-thymidine (20 uCi/mL). […] The plate was incubated for another 24 h. The cells were harvested, and radioactivity was counted using the Packard Matrix 96 beta counter. The results were expressed as the minimal concentration that inhibits ^3H-thymidine incorporation by 50% (IC50). Percent growth inhibition was calculated as follows: [(total cpm−experimental cpm)/total cpm]×100.

Molecule `COc1cccc2c1C(=O)c1c(O)c3c(c(O)c1C2=O)C[C@@](O)(C(=O)CO)C[C@@H]3O[C@H]1C[C@H](N)[C@H](O)[C@H](C)O1` [Doxorubicin, doxorubicin] came in with an MTD in data set [1] of 8 mg/kg. For the same molecule, in the data set on JC breast adenocarcinoma (8.0 mg/kg q4d × 3 i.v.), the “% Maximum weight loss” value was −25%, the “% Tumor growth inhibition” value came out at 82% and the “Log10 cell kill (LCK)” value amounted to 0.78. For the same molecule, the antitumor response entry in data set [2] (free Dox) was “modest antitumor activity”. Also, the body weight loss entry in [2] (treatment with free Dox) is given as “about 10%”. Further, in data set [3] (5 mg/kg iv. on days 15, 24, 33), the “% Maximum weight loss” value is recorded as −4% and the “% Tumor growth inhibition” value is given as 39%. Besides, the “% ILS” value with L1210 leukemia (10.0 mg/kg i.v. on day 1) is recorded as 85%.

For the molecule `O=C(CCCCCN1C(=O)C=CC1=O)Oc1cc2c(c3ccccc13)[C@H](CCl)CN2C(=O)c1cc2cc(NC(=O)c3cc4cc(F)ccc4[nH]3)ccc2[nH]1` [(+)-YW-391], the “tumor cells killed relative to Dox at 8 mg/kg” value in the data set with JC breast adenocarcinoma (0.16 mg/kg (LCK 1.5) versus Dox 8 mg/kg (LCK 0.78)) is 10 times. In the data set with JC breast adenocarcinoma (at MTD, dose not given), this molecule returned a TGI of 98%. In the data set on colon 38 adenocarcinoma (0.15 mg/kg (LCK 2.3) versus 5-FU 70 mg/kg (LCK 1.1)), the “tumor cells killed relative to 5-FU at 70 mg/kg” value is listed as 10 times. For the same molecule, the “% Maximum weight loss” value with colon 38 adenocarcinoma (0.3 mg/kg q4d × 2 i.v.) is recorded as −25%; in [3] (0.13 mg/kg iv. on days 15, 24, 33), −3%; with Lewis lung carcinoma (setting [6]), −17%. In addition, the entries for the “% ILS” value in the data set on L1210 leukemia (0.05 mg/kg i.v. on day 1) and with L1210 leukemia (0.1 mg/kg i.v. on day 1) were 40% and 51%, respectively. For the same molecule, in the data set on Lewis lung carcinoma (setting [6]), the “Log10 cell kill (LCK)” value is given as 0.75. In the data set on Lewis lung carcinoma (no dose given), the TGIs came to 98%.

Take `COC(=O)c1c(C)[nH]c2c(OC(=O)N3CCN(C)CC3)cc3c(c12)[C@H](CBr)CN3C(=O)c1cc2cc(OC)c(OC)c(OC)c2[nH]1` [KW-2189]: the “antitumor activity in vivo” value in the data set with various tumors (P388, L1210, B16, colon 26, colon 38, LC-6, ST-4, ST-40, LI-7, PAN-02, MX-1 (Kobayashi et al. 1994)) is “active”.

Take `CCN(CC)c1ccc2cc(C(=O)Nc3ccc4[nH]c(C(=O)N5C[C@@H](CCl)c6c5cc(OC(=O)Nc5ccccc5)c5[nH]cc(C)c65)cc4c3)oc2c1` [Carzelesin, carzelesin]: the “antitumor activity in vivo” value with various tumors (several colon adenocarcinomas and pediatric rhabdomyosarcomas (Houghton et al. 1995)) is “effective”. Also, in [4], the “duration of partial remission” value is 8 months and the “regression of primary liver cancer” value is on record as 50%. The “average IC70 value” in the data set on various cancer cells was 0.23 ng/mL.

For `Cc1c[nH]c2c1[C@@]13C[C@@H]1CN(C(=O)c1cc4cc(NC(=O)c5cc6ccccc6o5)ccc4[nH]1)C3=CC2=O` [Adozelesin, adozelesin], the “antitumor activity in vivo” value in the data set on various tumors (L1210 leukemia, B16 melanoma, M5076 sarcoma, colon 38, colon CX-1, lung LX-1, pancreas 02, ovarian 2780 in mice (Li et al. 1991)) is “very active”.

As to `O=C(CCCCCN1C(=O)C=CC1=O)Oc1cc2c(c3ccccc13)[C@H](CCl)CN2C(=O)c1cc2cc(NC(=O)c3cc4ccccc4o3)ccc2[nH]1` [(+)-YW-392], the IC50 (in general, the concentration that inhibits the measured activity by half) with L1210 leukemia cells stood at 31 nM.

Regarding `COc1cccc2c1C(=O)c1c(O)c3c(c(O)c1C2=O)C[C@@](O)(/C(CO)=N/NC(=O)CCCCCN1C(=O)C=CC1=O)C[C@@H]3O[C@H]1C[C@H](N)[C@H](O)[C@H](C)O1` [Dox-MH], the body weight change entry in data set [2] (after 24 days of drug administration) was “did not produce an overall change in body weight”. In addition, in data set [2] (optimal dose 3×39.3 umol/kg (3×23 mg/kg)), the antitumor response entry is “complete remissions”. Moreover, the “time by which all of the Dox-MH had reacted” value at HSA and on endogenous albumin was not above 90 min throughout. Further, the “time within which majority of the Dox-MH reacted with HSA” value at HSA is not above 5 min. The “antitumor efficacy and toxicity versus free doxorubicin” value in [5] is “distinctly superior to free doxorubicin”.

Turning to `CC(=O)O[C@H]1C(=O)[C@@]2(C)[C@H]([C@H](OC(=O)c3ccccc3)[C@]3(O)C[C@H](OC(=O)[C@H](O)[C@@H](NC(=O)c4ccccc4)c4ccccc4)C(C)=C1C3(C)C)[C@]1(OC(C)=O)CO[C@@H]1C[C@@H]2O` [Paclitaxel, paclitaxel], the “% Maximum weight loss” value in data set [3] (25 mg/kg ip. on days 15, 24, 33) was −1%.

With `N.N.[Cl][Pt][Cl]` [Cisplatin, cisplatin], in the data set with Lewis lung carcinoma (setting [7]), the “% Maximum weight loss” value is given as −13%, the “% Tumor growth inhibition” value is given as 74% and the “Log10 cell kill (LCK)” value is recorded as 0.45.

As to `Cc1c[nH]c2c(O)cc3c(c12)[C@H](CCl)CN3C(=O)c1cc2cc(NC(=O)Nc3ccc4[nH]c(C(=O)N5C[C@@H](CCl)c6c5cc(O)c5[nH]cc(C)c65)cc4c3)ccc2[nH]1` [Bizelesin, bizelesin], the “antitumor activity in vivo” value in the data set on various tumors (P388, L1210, B16, UACC-62, LOX IMVI, SK-MEL-3, CAKI-1, LX-1, Lewis lung, HT-29, colon 38, pancreas 02, MCF7, MX-1 (Carter et al. 1996)) is reported as “effective”.

The record behind these values is patent US20050250835A1, “Novel tumor-selective chemotherapeutic agents” (priority 2004, published 2005).
